Assay results reported in paper PMC7591906, “pHLIP ICG for delineation of tumors and blood flow during fluorescence-guided surgery” (Scientific Reports, 2020).
pIC50, pKi: −log10 of the molar value.

Key:
[1] = cited from earlier work
Experimental: We carried out a comparative study of blood flow imaging in mice using ICG-Cys (ICG-maleimide conjugated with a Cys residue) and pHLIP ICG (2.5 nmol of each). […] The most widely used is the near-infrared emitting ICG, first approved for angiography and subsequently used in ophthalmology and elsewhere for imaging blood vessels[36]–[41]. […] If administered intraperitoneally, ICG is found in the nearest lymph nodes within 15 min, and in the regional lymph nodes within 1–2 h[44],[45]. The IV dose of ICG varies from 0.5 to 2.0 ...

[2] = Peripheral blood micronucleus test in rats (GLP); assay type: in vivo, Sprague Dawley rats; settings: male rats, 10 mg/kg oral gavage twice, 24 hours apart
Experimental: The objective of this GLP study performed at CRL was to determine the potential genotoxicity of pHLIP ICG when given by i.v. bolus injection to rats using the peripheral blood micronucleus test.
In order to determine the maximum tolerated dose, a dose-range finding test was performed prior to the main test, where male and female rats (3 animals/sex) were administered a single dose of pHLIP ICG by i.v. injection. The doses evaluated were 14 mg/kg and 25 mg/kg using 5% EtOH in PBS, pH 7.4 as the vehicle.
Blood was collected for micronuclei evaluation at 45 hours post-dose (Groups 3 to 7), and 69 hours post-dose (Groups 3 and 7). The proportion of immature erythrocytes among total erythrocytes in the peripheral blood (%RETs) and the percentage of micronucleated reticulocytes (%MN-RETs) in the NC group were within the laboratory historical negative control range. […] The results from both NC and PC groups confirmed the validity of the assay.

progesterone receptor B = molecular target: T1, progesterone receptor B (Homo sapiens, UniProt P06401); assay: Progesterone receptor B radioligand binding assay
T1 construct: purchased Eurofins Panlabs, Inc
T1 sequence (P06401 1-933): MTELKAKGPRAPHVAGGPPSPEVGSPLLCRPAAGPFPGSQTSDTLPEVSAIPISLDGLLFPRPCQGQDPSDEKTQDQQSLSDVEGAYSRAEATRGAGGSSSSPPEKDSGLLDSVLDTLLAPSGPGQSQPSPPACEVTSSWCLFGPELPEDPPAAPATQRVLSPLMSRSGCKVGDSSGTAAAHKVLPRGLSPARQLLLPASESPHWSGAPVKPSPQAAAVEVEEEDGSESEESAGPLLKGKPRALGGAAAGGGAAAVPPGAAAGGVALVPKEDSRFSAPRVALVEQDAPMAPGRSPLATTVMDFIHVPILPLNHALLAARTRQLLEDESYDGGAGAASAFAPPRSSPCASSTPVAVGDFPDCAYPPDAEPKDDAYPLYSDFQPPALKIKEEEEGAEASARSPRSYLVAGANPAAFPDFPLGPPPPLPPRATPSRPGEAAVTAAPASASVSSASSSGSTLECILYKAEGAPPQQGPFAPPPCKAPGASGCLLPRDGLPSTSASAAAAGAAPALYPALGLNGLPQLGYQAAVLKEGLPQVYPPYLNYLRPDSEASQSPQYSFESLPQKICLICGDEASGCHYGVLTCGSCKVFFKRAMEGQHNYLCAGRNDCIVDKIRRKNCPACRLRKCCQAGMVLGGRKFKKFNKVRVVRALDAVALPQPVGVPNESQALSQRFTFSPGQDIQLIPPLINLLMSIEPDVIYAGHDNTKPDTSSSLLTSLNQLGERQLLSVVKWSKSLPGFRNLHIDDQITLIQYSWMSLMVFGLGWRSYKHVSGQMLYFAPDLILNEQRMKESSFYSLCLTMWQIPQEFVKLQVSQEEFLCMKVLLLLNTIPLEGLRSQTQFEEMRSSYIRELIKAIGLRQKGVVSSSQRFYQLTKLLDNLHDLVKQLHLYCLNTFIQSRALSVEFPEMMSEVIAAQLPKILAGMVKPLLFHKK
Experimental: The pHLIP ICG enzyme binding assays were performed by Eurofins Panlabs, Inc. according to standard assay protocols. The following enzymes were used in the binding assay with 2 µM of pHLIP ICG : acetyl cholinesterase; peptidase (angiotensin converting enzyme); ATPase (Na^+/K^+, pig heart); CTSG peptidase (cathepsin G); cyclooxygenases COX-1 and COX-2; monoamine oxidases MAO-A and MAO-B; phosphodiesterases PDE3 and PDE4D2; protein tyrosine kinase (insulin receptor); protein tyrosine kinase (LCK); protein serine/threonine kinase (PKC, non-selective); adenosine A1 and A2A; adenosine transporter; adrenergic α1A, α1B, α1D, α2A, α2B, β1 and β2; norepinephrine transporter (NET); androgen (testosterone); angiotensin AT1; bradykinin B2; calcium channels L-type (benzothiazepine, dihydropyridine, phenylalkylamine); calcium channel N-type; cannabinoid CB1 and CB2; chemokine CCR1; cholecystokinin CCK1 (CCKA) and CCK2 (CCKB); dopamine D1, D2L and D2S; dopamine transporter (DAT); endothelin ETA; estrogen ERα; GABA transporter; GABAAs (flunitrazepam, central; Ro-15-1788, hippocampus and chloride channel, TBOB); glucocorticoid; glutamate (AMPA, kainate, agonism NMDA, glycine NMDA, phencyclidine NMDA, polyamine NMDA, and mGlu5 metabotropic); glycine (strychnine-sensitive); histamine H1 and H2; chemokine CXCR2 (IL-8RB); cysteinyl leukotriene (CysLT1); melanocortin MC1 and MC4; muscarinic M1, M2, M3, and M4; tachykinin NK1; neuropeptide Y Y1; nicotinic acetylcholine α1 (bungarotoxin) and α3β4; opiate δ1 (OP1, DOP), κ (OP2, KOP), and μ (OP3, MOP); platelet activating factor (PAF); potassium channels (KATP and hERG); PPARγ; serotonin (5-hydroxytryptamine) 5-HT1A, 5-HT1B, 5-HT2A, 5-HT2B, 5-HT2C, and 5-HT3; serotonin transporter (SERT); sodium channel (site 2); vasopressin V1A; progesterone (PR-B). The most significant inhibitory effect of pHLIP ICG was observed on progesterone B and was followed by an additional study to identify IC50 values, which were determined by a non-linear least square regression analysis using MathIQTM (ID Business Solutions Ltd., UK). The Ki values were calculated by the equation from Cheng and Prusoff [Cheng, Y., Prusoff, W.H., Biochem. Pharmacol. 22:3099-3108, 1973] using the observed IC50 of pHLIP ICG , the concentration of radioligand employed in the assay, and the historical values for the KD of the ligand (Eurofins Panlabs data). The Hill coefficient (nH), defining the slope of the competitive binding curve, was calculated using MathIQTM. The IC50, Ki, and nH values were established for pHLIP ICG and compared to the known progesterone agonist, R-2050 (Figure S3).
Figure SI,3. […]

Question: Which “Time to be found in the nearest lymph nodes” value ([1]; administered intraperitoneally) does the source give for `CC1(C)C(/C=C/C=C/C=C/C=C2\N(CCCCS(=O)(=O)O)c3ccc4ccccc4c3C2(C)C)=[N+](CCCCS(=O)(=O)[O-])c2ccc3ccccc3c21` [ICG, indocyanine green] here?
Answer: ≤ 15 min

Question: And the “Time to be found in the regional lymph nodes” value ([1]; administered intraperitoneally)?
Answer: 1 to 2 h

Question: What about the “Clearance from the blood” value ([1]; as contrast agent for imaging blood flow, no reference given) of the same compound?
Answer: within a few minutes

Question: And the Half-life in blood [1]?
Answer: 2.5 min

Question: And the “Time of appearance in the bile after injection” value ([1]; cleared through the liver)?
Answer: about 8 min

Question: What about the Acute toxicity ([1]; high dose of 5 mg/kg) of the same compound?
Answer: no acute toxicity has been observed

Question: Which “Micronuclei, positive control” value [2] does the source give for `O=P1(N(CCCl)CCCl)NCCCO1` (stereo not drawn) [PC, cyclophosphamide monohydrate, reference compound] here?
Answer: statistically significant increase in micronuclei

Question: With `CCC(=O)[C@@]1(C)CC[C@H]2[C@@H]3CCC4=CC(=O)CCC4=C3CC[C@@]21C` [R-2050, reference compound] as the compound, how does the pKi (progesterone receptor B; Cheng-Prusoff from IC50, reference agonist, read-out: Ki progesterone receptor B) read?
Answer: 9.59

Question: What about the pIC50 (progesterone receptor B; radioligand binding, 20 hrs, reference agonist, read-out: IC50 progesterone receptor B) of the same compound?
Answer: 9.48
